Laboratory results: patent US10858410B2, “Glycosylated peptides with pseudoproline residues and having enhanced half-lives and ability to cross the blood brain barrier” (ARIZONA BOARD OF REGENTS ON BEHALF OF THE UNIVERSITY OF …, priority 2015, dated 2020)
Entries after “also recorded” stand apart in the source; their conditions may differ. No end group written: not given here.

How the values were obtained:
human PAC1 receptors [1] = target: T1, human PAC1 receptors (Homo sapiens, UniProt P41586); assay: FLIPR calcium flux, antagonist fixed concentration mode (Gaddum/Schild EC50 shift), PAC1-CHO cells; format: cell-based; settings: for shift of PACAP1-27 agonist curves: fixed concentrations of antagonist up to 1 μM
T1 construct: host or cells: CHO (clonal line PAC1-CHO)
T1 sequence (P41586 21-468): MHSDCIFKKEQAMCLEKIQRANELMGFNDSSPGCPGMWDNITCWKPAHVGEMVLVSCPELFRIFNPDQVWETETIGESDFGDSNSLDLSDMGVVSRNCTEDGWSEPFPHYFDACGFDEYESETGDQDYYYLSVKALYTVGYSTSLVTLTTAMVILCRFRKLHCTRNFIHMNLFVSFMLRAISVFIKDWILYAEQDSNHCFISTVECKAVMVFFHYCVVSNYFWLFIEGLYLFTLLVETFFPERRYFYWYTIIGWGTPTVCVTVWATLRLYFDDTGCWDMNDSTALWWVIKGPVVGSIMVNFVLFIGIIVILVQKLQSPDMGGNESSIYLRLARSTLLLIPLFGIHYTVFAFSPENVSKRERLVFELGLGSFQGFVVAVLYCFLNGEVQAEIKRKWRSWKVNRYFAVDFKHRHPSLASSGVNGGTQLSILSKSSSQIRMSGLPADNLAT
Protocol: A custom DNA clone of the human PAC1 gene with 3 hemagglutinin (HA) tags inserted 3′ to the signal peptide sequence (to avoid proteolytic loss) was obtained from Genecopoeia (Rockville, Md.). The construct was electroporated into Chinese Hamster Ovary (CHO) cells, and selected for with 500 μg/mL of G418. The resulting population was screened for high expressing clones, and one such clone selected for further analysis. […] This cell line was used for all molecular pharmacology experiments. […] All molecular pharmacology experiments were carried out using a FLIPR Tetra from Molecular Devices (Sunnyvale, Calif.), set to image calcium flux using the manufacturer's recommended settings and protocols. The day before an experiment, the PAC1-CHO cells were split into 384 well black walled, clear bottom microplates, 10,000 cells per well. The cells were recovered overnight in growth medium (as above). The next day, the growth medium was replaced with Calcium 6 dye (Molecular Devices) using the manufacturer recommended buffer with 2.5 mM probenecid. The cells were incubated for 2 hours in the culture incubator, and removed during the last 15 minutes to allow equilibration to room temperature. Compound as indicated below was added to the cells using a 384 tip block, with real time monitoring before, during, and 15 minutes after compound addition. The resulting calcium flux was recorded, and the maximum-minimum response over the entire observation time calculated and reported as the mean±SEM (4 wells per point). For antagonist mode experiments, a concentration curve (variable concentration mode) or fixed amount (fixed concentration mode) of antagonist was added to the cells, and allowed to equilibrate for 2 minutes. […] The resulting data was analyzed using a Gaddum/Schild EC50 shift model, (Schild, 1957, Gaddum, 1957) designed to analyze competitive antagonism. […] The pharmacology values are calculated separately from each experiment, then combined and reported as the mean±SEM for the entire set of experiments.

human PAC1 receptors [2] = target: T1, human PAC1 receptors; assay: FLIPR calcium flux, antagonist variable concentration mode versus 5 nM PACAP1-27, PAC1-CHO cells; format: cell-based; settings: up to 1 μM
Protocol: A custom DNA clone of the human PAC1 gene with 3 hemagglutinin (HA) tags inserted 3′ to the signal peptide sequence (to avoid proteolytic loss) was obtained from Genecopoeia (Rockville, Md.). The construct was electroporated into Chinese Hamster Ovary (CHO) cells, and selected for with 500 μg/mL of G418. The resulting population was screened for high expressing clones, and one such clone selected for further analysis. […] This cell line was used for all molecular pharmacology experiments. The cells were maintained in DMEM/F12 with 10% heat-inactivated FBS, 1× penicillin/streptomycin, and 500 μg/mL G418, at 37° C. and 5% CO2.
All molecular pharmacology experiments were carried out using a FLIPR Tetra from Molecular Devices (Sunnyvale, Calif.), set to image calcium flux using the manufacturer's recommended settings and protocols. […] The resulting calcium flux was recorded, and the maximum-minimum response over the entire observation time calculated and reported as the mean±SEM (4 wells per point).
For antagonist mode experiments, a concentration curve (variable concentration mode) or fixed amount (fixed concentration mode) of antagonist was added to the cells, and allowed to equilibrate for 2 minutes. […] The resulting data was analyzed using a Gaddum/Schild EC50 shift model, (Schild, 1957, Gaddum, 1957) designed to analyze competitive antagonism. […]

[3] = tested on: PACAP receptors in human neuroblastoma NB-OK-1 cell membranes; settings: Robberecht et al. 1992; read-out: reported Ki values; cited from earlier work
[4] = in vivo, ip
PC12 cells = assay: Differentiation of cultured PC12 cells; format: cell-based; settings: 100 nM, compared to vehicle treated cells, qualitative
Protocol: The PC12 cells were cultured in RPMI containing 5% heat inactivated fetal bovine serum and 10% horse serum in the presence of 100 units/mL penicillin and 100 microgram/mL streptomycin. The cells were plated on poly-D-Lysine coated 6-well tissue culture plates at a density of 150,000 cells per well in 2 mL media. After 48 hours at 37° C. in 5% CO2 atmosphere, media exchange was performed and plates were dosed, using the peptide diluent (water) for the control samples. […] Cell images of each treatment group were captured and compared to the control cells to screen for differentiation and cell body volume increases. Cells having neurite-like process outgrowth were noted and photographed. The neurite-like outgrowth was deemed positive if its length was at least two times the width of the cell body.

FTDSY10SRYRKQMAVK20KYLAAVL (FTDSYSRYRKQMAVKKYLAAVL-NH2; ends and bridges not checked) [PACAP6-27]
shift of PACAP1-27 agonist curves (human PAC1 receptors [1]): caused no shift in the agonist curves; also recorded: no detectable shifts in the agonist curves
antagonist activity at PAC1 (in words) (human PAC1 receptors [2]): no antagonist activity and none
Ki [3]: 60 nM

CC[C@H](C)[C@H](NC(=O)CNC(=O)[C@H](CC(=O)O)NC(=O)[C@H](CO)NC(=O)[C@@H](N)Cc1c[nH]cn1)C(=O)N[C@@H](Cc1ccccc1)C(=O)N[C@H](C(=O)N[C@@H](CC(=O)O)C(=O)N[C@@H](CO)C(=O)N[C@@H](Cc1ccc(O)cc1)C(=O)N[C@@H](CO)C(=O)N[C@@H](CCCNC(=N)N)C(=O)N[C@@H](Cc1ccc(O)cc1)C(=O)N[C@@H](CCCNC(=N)N)C(=O)N[C@@H](CCCCN)C(=O)N[C@@H](CCC(N)=O)C(=O)N[C@@H](CCSC)C(=O)N[C@@H](C)C(=O)N[C@H](C(=O)N[C@@H](CCCCN)C(=O)N[C@@H](CCCCN)C(=O)N[C@@H](Cc1ccc(O)cc1)C(=O)N[C@@H](CC(C)C)C(=O)N[C@@H](C)C(=O)N[C@@H](C)C(=O)N[C@H](C(=O)N[C@@H](CO[C@@H]1O[C@H](CO)[C@@H](O)[C@H](O)[C@H]1O)C(N)=O)C(C)C)C(C)C)[C@@H](C)O [PACAP1-27-S-G]
presence in mouse brain / crossing the blood brain barrier [4]: presence in mouse brain could be detected

CC[C@H](C)[C@H](NC(=O)CNC(=O)[C@H](CC(=O)O)NC(=O)[C@H](CO)NC(=O)[C@@H](N)Cc1c[nH]cn1)C(=O)N[C@@H](Cc1ccccc1)C(=O)N[C@H](C(=O)N[C@@H](CC(=O)O)C(=O)N[C@@H](CO)C(=O)N[C@@H](Cc1ccc(O)cc1)C(=O)N[C@@H](CO)C(=O)N[C@@H](CCCNC(=N)N)C(=O)N[C@@H](Cc1ccc(O)cc1)C(=O)N[C@@H](CCCNC(=N)N)C(=O)N[C@@H](CCCCN)C(=O)N[C@@H](CCC(N)=O)C(=O)N[C@@H](CCSC)C(=O)N[C@@H](C)C(=O)N[C@H](C(=O)N[C@@H](CCCCN)C(=O)N[C@@H](CCCCN)C(=O)N[C@@H](Cc1ccc(O)cc1)C(=O)N[C@@H](CC(C)C)C(=O)N[C@@H](C)C(=O)N[C@@H](C)C(=O)N[C@H](C(=O)N[C@@H](CC(C)C)C(N)=O)C(C)C)C(C)C)[C@@H](C)O [PACAP1-27]
neurite-like process outgrowth / differentiation (PC12 cells): induced neurite outgrowth

CSCC[C@H](NC(=O)[C@H](CCC(N)=O)NC(=O)[C@H](CCCCN)NC(=O)[C@H](CCCNC(=N)N)NC(=O)[C@H](Cc1ccc(O)cc1)NC(=O)[C@H](CCCNC(=N)N)NC(=O)[C@H](CO)NC(=O)[C@H](Cc1ccc(O)cc1)NC(=O)[C@H](CO)NC(=O)[C@H](CC(=O)O)NC(=O)[C@@H](NC(=O)[C@@H](N)Cc1ccccc1)[C@@H](C)O)C(=O)N[C@@H](C)C(=O)N[C@H](C(=O)N[C@@H](CCCCN)C(=O)N[C@@H](CCCCN)C(=O)N[C@@H](Cc1ccc(O)cc1)C(=O)N[C@@H](CC(C)C)C(=O)N[C@@H](C)C(=O)N[C@@H](C)C(=O)N[C@H](C(=O)N[C@@H](CC(C)C)C(=O)NCC(=O)N[C@@H](CCCCN)C(=O)N[C@@H](CCCNC(=N)N)C(=O)N[C@@H](Cc1ccc(O)cc1)C(=O)N[C@@H](CCCCN)C(=O)N[C@@H](CCC(N)=O)C(=O)N[C@@H](CCCNC(=N)N)C(=O)N[C@H](C(=O)N[C@@H](CCCCN)C(=O)N[C@@H](CC(N)=O)C(=O)N[C@@H](CCCCN)C(N)=O)C(C)C)C(C)C)C(C)C [PACAP6-38]
Schild Slope (human PAC1 receptors [1]; fixed concentration mode): 2.0±0.1
shift of PACAP1-27 agonist curves (human PAC1 receptors [1]): induced a shift only at 1 μM; also recorded: shifts the curve only at the highest concentration (1 μM)
antagonist activity at PAC1 (in words) (human PAC1 receptors [2]): very weak antagonist activity; also recorded: shows antagonism, but it is low potency
Ki [3]: 1.5 nM
